Reference: PMC6522510 (Nature Communications, 2019)
Like-named read-outs stand apart in the source and are kept apart here.

What was measured:
MOLM-13 = assay: Secondary dose-response HTS, Cell Titer Glo; assay type: cell-based, human
MV4-11 [1] = assay: Secondary dose-response HTS, Cell Titer Glo; assay type: cell-based, human
CHRF288-11 [2] = assay: Secondary dose-response HTS, Cell Titer Glo; assay type: cell-based, human; conditions: secondary high-throughput screen, CHRF288-11; for EC50: Homo sapiens, HTS, read-out: average effective concentration, CHRF288-11
CMK = assay: Secondary dose-response HTS, Cell Titer Glo; assay type: cell-based, human; conditions: CMK; for EC50: Homo sapiens, read-out: average effective concentration, CMK
ML2 = assay: Secondary dose-response HTS, Cell Titer Glo; assay type: cell-based, human; conditions: for EC50: Homo sapiens
U937 [3] = assay: Secondary dose-response HTS, Cell Titer Glo; assay type: cell-based, human; conditions: for EC50: Homo sapiens
CMS = assay: cells; design: species or system AML cell lines (8); Secondary HTS, 10-point dose-response in triplicate, Cell Titer Glo viability, four-parameter fit EC50; conditions: 72 h, read-out: CMS
M07e = assay: cells; design: species or system AML cell lines (8); Secondary HTS, 10-point dose-response in triplicate, Cell Titer Glo viability, four-parameter fit EC50; conditions: M-07e, 72 h, read-out: M07e
CHRF288-11 [4] = assay: cells; design: species or system AML cell lines (8); Secondary HTS, 10-point dose-response in triplicate, Cell Titer Glo viability, four-parameter fit EC50; conditions: 72 h, read-out: CHRF288-11
U937 [5] = assay: cells; design: species or system AML cell lines (8); Secondary HTS, 10-point dose-response in triplicate, Cell Titer Glo viability, four-parameter fit EC50; conditions: Homo sapiens, U-937, 72 h, read-out: U937
MV4-11 [6] = assay: cells; design: species or system AML cell lines (8); Secondary HTS, 10-point dose-response in triplicate, Cell Titer Glo viability, four-parameter fit EC50; conditions: Homo sapiens, MV4-11, 72 h, read-out: MV4-11
[7] = secondary high-throughput screen, MOLM-13
[8] = secondary high-throughput screen, MV4-11
[9] = secondary high-throughput screen
[10] = secondary high-throughput screen, ML-2
[11] = Homo sapiens, secondary high-throughput screen, MOLM-13, read-out: average effective concentration, MOLM-13
[12] = Homo sapiens, secondary high-throughput screen, MV4-11, read-out: average effective concentration, MV4-11
[13] = secondary high-throughput screen, ML-2, read-out: average effective concentration, ML-2
[14] = U-937, secondary high-throughput screen, U937, read-out: average effective concentration, U937
[15] = secondary high-throughput screen, U937
[16] = ML-2, read-out: average effective concentration, ML-2
[17] = U-937, read-out: average effective concentration, U937

## COc1cc(O)c2c(c1)/C=C/C[C@H](O)[C@H](O)C(=O)/C=C\C[C@H](C)OC2=O [(5Z)-7-OXOZEAENOL]
MOLM-13; [7]
  average effective concentration, MOLM-13: Inactive
MV4-11 [1]; [8]
  average effective concentration, MV4-11: Inactive

## N#C/C(=C\c1ccc(-c2cc(Cl)ccc2Cl)o1)C(=O)Nc1cccc2ncccc12 [AGK 2]
MOLM-13; [7]
  average effective concentration, MOLM-13: Inactive
MV4-11 [1]; [8]
  average effective concentration, MV4-11: Inactive
CHRF288-11 [2]
  average effective concentration, CHRF288-11: Inactive
CMK; [9]
  average effective concentration, CMK: Inactive
ML2; [10]
  average effective concentration, ML-2: Inactive

## COc1cc(N2CCC(N3CCN(C)CC3)CC2)ccc1Nc1ncc(Cl)c(Nc2ccccc2P(C)(C)=O)n1 [AP26113]
MOLM-13; [11]
  EC50: 0.26 µM
MV4-11 [1]; [12]
  EC50: 0.6 µM
CHRF288-11 [2]
  EC50: 6 µM
CMK; [9]
  EC50: 6.5 µM
ML2; [13]
  EC50: 4 µM
U937 [3]; [14]
  EC50: 7.8 µM
CMS
  EC50: > 10 µM
M07e
  EC50: > 10 µM

## COc1cc(N2CCC(N3CCN(C)CC3)CC2)ccc1Nc1ncnc(Nc2ccccc2S(=O)(=O)C(C)C)n1 [ASP3026]
MOLM-13; [11]
  EC50: 8 µM
MV4-11 [1]; [12]
  EC50: > 10 µM
CMK; [9]
  EC50: 9.5 µM
ML2; [13]
  EC50: > 10 µM
CHRF288-11 [4]
  EC50: > 10 µM
CMS
  EC50: > 10 µM
M07e
  EC50: > 10 µM
U937 [5]
  EC50: > 10 µM

## CC(C)C[C@H](NC(=O)[C@H](Cc1ccccc1)NC(=O)c1cnccn1)B(O)O [Bortezomib]
CHRF288-11 [4]
  EC50: 0.0021 µM

## C=CC(=O)Nc1cccc(Nc2nc(Nc3ccc(OCCOC)cc3)ncc2F)c1 [CC-292 (AVL-292)]
MOLM-13; [7]
  average effective concentration, MOLM-13: Inactive
MV4-11 [1]; [8]
  average effective concentration, MV4-11: Inactive
CHRF288-11 [2]
  average effective concentration, CHRF288-11: Inactive

## CS(=O)(=O)N1CCc2c(-c3cnc(N)nc3)nc(N3CCOCC3)nc21 [CH-5132799]
MOLM-13; [11]
  EC50: 2.5 µM
MV4-11 [1]; [12]
  EC50: 3.9 µM
CHRF288-11 [2]
  EC50: 9.4 µM
CMK; [9]
  EC50: 1.5 µM
ML2; [13]
  EC50: 6.9 µM
U937 [3]; [14]
  EC50: 4 µM
CMS
  EC50: > 10 µM
M07e
  EC50: > 10 µM

## Br.Cc1cc2nc(NCCCO)n(CC(=O)c3cc(C(C)(C)C)c(O)c(C(C)(C)C)c3)c2cc1C [CID-2858522]
MOLM-13; [7]
  average effective concentration, MOLM-13: Inactive
MV4-11 [1]; [8]
  average effective concentration, MV4-11: Inactive
CHRF288-11 [2]
  average effective concentration, CHRF288-11: Inactive
CMK; [9]
  average effective concentration, CMK: Inactive

## COc1cc2ncnc(-n3nc(-c4ccccn4)nc3N)c2cc1OC [CP-466722]
MOLM-13; [7]
  average effective concentration, MOLM-13: Inactive
MV4-11 [1]; [8]
  average effective concentration, MV4-11: Inactive
CHRF288-11 [2]
  average effective concentration, CHRF288-11: Inactive
CMK; [9]
  average effective concentration, CMK: Inactive
ML2; [10]
  average effective concentration, ML-2: Inactive
U937 [3]; [15]
  average effective concentration, U937: Inactive

## CO[C@@H](C(=O)N1Cc2n[nH]c(NC(=O)c3ccc(N4CCN(C)CC4)cc3)c2C1)c1ccccc1 [DANUSERTIB]
MOLM-13; [11]
  EC50: 1.4 µM
MV4-11 [1]; [12]
  EC50: 0.48 µM
CMK
  EC50: > 10 µM
ML2; [13]
  EC50: 0.61 µM
U937 [3]; [14]
  EC50: 3.8 µM
CHRF288-11 [4]
  EC50: > 10 µM
CMS
  EC50: > 10 µM
M07e
  EC50: > 10 µM

## Cc1cc(Cl)ccc1OCCCC(=O)NO [DROXINOSTAT]
MOLM-13; [7]
  average effective concentration, MOLM-13: Inactive
MV4-11 [1]; [8]
  average effective concentration, MV4-11: Inactive
CMK; [9]
  average effective concentration, CMK: Inactive
ML2; [10]
  average effective concentration, ML-2: Inactive
U937 [3]; [15]
  average effective concentration, U937: Inactive

## CN(C)C1CCN(C(=O)c2ccc(NC(=O)Nc3ccc(-c4nc(N5CCOCC5)nc(N5CCOCC5)n4)cc3)cc2)CC1 [Gedatolisib]
MOLM-13; [11]
  EC50: 0.19 µM
MV4-11 [1]; [12]
  EC50: 0.047 µM
CMK; [9]
  EC50: 7.7 µM
U937 [3]; [14]
  EC50: 0.024 µM

## O=C(c1ccc(Nc2nccc(-c3cc4ccccc4s3)n2)cc1)N1CCC(N2CCCC2)CC1 [IKK 16]
MOLM-13; [7]
  average effective concentration, MOLM-13: Inactive
MV4-11 [1]; [8]
  average effective concentration, MV4-11: Inactive

## Cc1ccc(NCCCc2ccccc2)c(N)c1 [JSH-23]
MOLM-13; [7]
  average effective concentration, MOLM-13: Inactive
MV4-11 [1]; [8]
  average effective concentration, MV4-11: Inactive

## CN(Cc1cnc2nc(N)nc(N)c2n1)c1ccc(C(=O)N[C@@H](CCC(=O)O)C(=O)O)cc1 [METHOTREXATE]
MOLM-13; [11]
  EC50: > 10 µM
CHRF288-11 [2]
  EC50: 0.001 µM
CMK; [9]
  EC50: 0.0045 µM
ML2; [13]
  EC50: 0.001 µM
MV4-11 [6]
  EC50: > 10 µM
CMS
  EC50: > 10 µM
M07e
  EC50: > 10 µM
U937 [5]
  EC50: > 10 µM

## NC(=O)c1cccc2cn(-c3ccc([C@@H]4CCCNC4)cc3)nc12 [NIRAPARIB]
MOLM-13; [11]
  EC50: 7.6 µM
MV4-11 [1]; [12]
  EC50: > 10 µM
CHRF288-11 [2]
  EC50: 0.22 µM
CMK; [9]
  EC50: 0.28 µM
ML2; [13]
  EC50: 0.18 µM
U937 [3]; [14]
  EC50: > 10 µM

## O=c1cc(N2CCOCC2)oc2c(-c3cccc4c3sc3ccccc34)cccc12 [NU 7441]
MOLM-13; [7]
  average effective concentration, MOLM-13: Inactive
MV4-11 [1]; [8]
  average effective concentration, MV4-11: Inactive
CHRF288-11 [2]
  average effective concentration, CHRF288-11: Inactive
CMK; [9]
  average effective concentration, CMK: Inactive
U937 [3]; [15]
  average effective concentration, U937: Inactive

## CCNC(=O)c1noc(-c2cc(C(C)C)c(O)cc2O)c1-c1ccc(CN2CCOCC2)cc1 [NVP-AUY922]
MOLM-13; [11]
  EC50: 0.001 µM
MV4-11 [1]; [12]
  EC50: 0.001 µM
CHRF288-11 [2]
  EC50: 0.021 µM
CMK; [9]
  EC50: 0.001 µM
ML2; [13]
  EC50: 0.023 µM
U937 [3]; [14]
  EC50: 0.001 µM
CMS
  EC50: > 10 µM
M07e
  EC50: > 10 µM

## CN(c1ncccc1CNc1nc(Nc2ccc3c(c2)CC(=O)N3)ncc1C(F)(F)F)S(C)(=O)=O [PF-00562271]
MOLM-13; [7]
  average effective concentration, MOLM-13: Inactive
MV4-11 [1]; [8]
  average effective concentration, MV4-11: Inactive
CHRF288-11 [2]
  average effective concentration, CHRF288-11: Inactive

## COc1cc(/C=C/c2ccc(O)cc2)cc(OC)c1 [PTEROSTILBENE]
MOLM-13; [11]
  EC50: > 10 µM
CMK
  EC50: 1.4 µM
ML2; [16]
  EC50: > 10 µM
U937 [3]; [17]
  EC50: > 10 µM
MV4-11 [6]
  EC50: > 10 µM
CHRF288-11 [4]
  EC50: > 10 µM
CMS
  EC50: > 10 µM
M07e
  EC50: > 10 µM

## Cc1[nH]c2ccccc2c1CCNCc1ccc(/C=C/C(=O)NO)cc1 [Panobinostat]
U937 [5]
  EC50: 0.0124 µM

## Nc1ccc2ncnc(NCCc3ccc(Oc4ccccc4)cc3)c2c1 [QNZ]
MOLM-13; [7]
  average effective concentration, MOLM-13: Inactive
MV4-11 [1]; [8]
  average effective concentration, MV4-11: Inactive
CHRF288-11 [2]
  average effective concentration, CHRF288-11: Inactive
CMK; [9]
  average effective concentration, CMK: Inactive
ML2; [10]
  average effective concentration, ML-2: Inactive

## O=C(CCCCCCNC(=O)c1cnc(N(c2ccccc2)c2ccccc2)nc1)NO [ROCILINOSTAT]
MOLM-13; [7]
  average effective concentration, MOLM-13: Inactive
MV4-11 [1]; [8]
  average effective concentration, MV4-11: Inactive

## O=C(Nc1ncc([N+](=O)[O-])s1)c1ccc([N+](=O)[O-])c(Cl)c1 [SM-7368]
MOLM-13; [7]
  average effective concentration, MOLM-13: Inactive
MV4-11 [1]; [8]
  average effective concentration, MV4-11: Inactive
CHRF288-11 [2]
  average effective concentration, CHRF288-11: Inactive
CMK; [9]
  average effective concentration, CMK: Inactive

## CNC(=O)c1cc(Oc2ccc(NC(=O)Nc3ccc(Cl)c(C(F)(F)F)c3)cc2)ccn1 [Sorafenib, reference compound]
MOLM-13; [11]
  EC50: 0.018 µM
CMK; [9]
  average effective concentration, CMK: 387
ML2; [13]
  EC50: > 10 µM
U937 [3]; [14]
  EC50: > 10 µM

## Nc1nc(NC2CC2)cc(-c2cccc(Cl)c2Cl)n1 [TH588]
MOLM-13; [7]
  average effective concentration, MOLM-13: Inactive
MV4-11 [1]; [8]
  average effective concentration, MV4-11: Inactive
CHRF288-11 [2]
  average effective concentration, CHRF288-11: Inactive

## Cc1cc(Nc2cc(N3CCN(C)CC3)nc(Sc3ccc(NC(=O)C4CC4)cc3)n2)[nH]n1 [TOZASERTIB]
MOLM-13; Homo sapiens, MOLM-13, read-out: average effective concentration, MOLM-13
  EC50: 0.039 µM
MV4-11 [1]; Homo sapiens, MV4-11, read-out: average effective concentration, MV4-11
  EC50: 0.068 µM
CMK
  EC50: 1.4 µM
ML2; [16]
  EC50: > 10 µM
U937 [3]; [17]
  EC50: > 10 µM

## CCN(CCCOc1ccc2c(Nc3cc(CC(=O)Nc4cccc(F)c4)n[nH]3)ncnc2c1)CCOP(=O)(O)O [barasertib]
CHRF288-11 [4]
  EC50: > 10 µM
CMS
  EC50: > 10 µM
M07e
  EC50: > 10 µM

## AZD4547
MOLM-13; secondary high-throughput screen, MOLM-13, read-out: average effective concentration, MOLM-13
  EC50: 4.1 µM
MV4-11 [1]; secondary high-throughput screen, MV4-11, read-out: average effective concentration, MV4-11
  EC50: 7.8 µM
